Tested on: T84 cells
Test: Cl^- secretion measured as short-circuit current (Isc) across T84 cell monolayers in Ussing chambers
Assay type: cell-based
Protocol: Materials and Methods: Cultured T84 epithelial cells were employed as a model of the colonic epithelium. T84 cells were grown as monolayers on filter supports. When grown in this way T84 cells retain many of the characteristics of native intestinal epithelium and are widely considered as being among the best reductionist models for analysing intestinal epithelial secretory responses. T84 cell monolayers were mounted in Ussing chambers, and voltage-clamped to zero potential difference. Under these conditions, transepithelial ion transport can be measured as changes in short-circuit current (Isc) and such changes in Isc across T84 cells have been established as wholly due to Cl^- ion secretion. […]

| Molecule | minimal effective concentration (Homo sapiens, responses to CCh, T84 cells (Figure 3B), read-out: concentration at which antisecretory effects are apparent) [µM] | secretory responses to CCh (100µM and 500µM for 15 minutes before CCh (100µM) (Figure 7)) | secretory responses to FSK (100µM and 500µM for 15 minutes before FSK (10µM) (Figure 7)) |
| --- | --- | --- | --- |
| C[C@H](CCC(=O)O)[C@H]1CC[C@H]2[C@@H]3[C@@H](O)C[C@@H]4C[C@H](O)CC[C@]4(C)[C@H]3CC[C@]12C [UDCA, ursodeoxycholic acid] | 50 |  |  |
| 6-methyl-UDCA [MUDCA] |  | inhibited secretory responses to both CCh and FSK | inhibited secretory responses to both CCh and FSK |

— EP2255813A1, “Derivatives of ursodeoxycholic acid for the treatment of diarrhoea” (The Royal College of Surgeons in Ireland, priority 2009, dated 2010)
